Test results reported in patent publication US5100916A, “Carbamic acid ester for treatment of addiction to alcohol” (Bio-Tox Diagnostics Kommanditbolag, priority 1988, dated 1992).

Legend:
[1] = target: T1, aldehyde dehydrogenase (low Km) (Rattus norvegicus, UniProt P11884); test: In vitro inhibition of aldehyde dehydrogenase of low Km, rat liver homogenate; assay type: biochemical; conditions: 1 h incubation, 2760 μmol/liter, water ref. = 100, double determinations, 4 rats, read-out: Residual activity of aldehyde dehydrogenase (Low Km in % of ref. value)
T1 construct: The aldehyde dehydrogenase activity in the homogenate after incubation for 1 h; from tissue; host or cells: rat liver homogenate
T1 sequence (P11884 20-519): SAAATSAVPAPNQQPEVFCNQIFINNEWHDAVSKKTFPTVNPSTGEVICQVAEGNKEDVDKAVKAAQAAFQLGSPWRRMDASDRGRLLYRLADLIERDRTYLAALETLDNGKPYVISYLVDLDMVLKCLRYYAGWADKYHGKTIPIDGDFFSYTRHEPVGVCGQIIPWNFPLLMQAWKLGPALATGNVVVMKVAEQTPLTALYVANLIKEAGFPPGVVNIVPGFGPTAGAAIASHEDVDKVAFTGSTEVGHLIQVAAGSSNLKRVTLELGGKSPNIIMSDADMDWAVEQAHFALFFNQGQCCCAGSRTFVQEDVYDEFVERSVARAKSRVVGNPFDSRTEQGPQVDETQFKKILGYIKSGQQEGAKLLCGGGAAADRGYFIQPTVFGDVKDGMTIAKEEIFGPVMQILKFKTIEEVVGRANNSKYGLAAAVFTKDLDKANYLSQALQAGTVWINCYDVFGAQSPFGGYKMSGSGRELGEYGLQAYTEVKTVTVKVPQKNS
Procedure: (§1) METHOD FOR INHIBITING ALDEHYDE DEHYDROGENASE
(§2) Fractionation of rat liver homogenates was performed according to Tottmar et al, Biochem. J. 1973:135:577. The aldehyde dehydrogenase activity in the homogenate after incubation for 1 h with different thiocarbamic acid esters (see Table 1) was measured spectrophotometrically in 50 μl aliquots by following the reduction of NAD to NADH at 340 nm at 37° C. in the presence of the substrate acetaldehyde […], as described by Tottmar and Marcher (Acta Pharmacol. et Toxicol. 1976:38:366).
(§3) In vitro inhibition of aldehyde dehydrogenase of low Km
(§4) The values are X±SD of double determinations, on the one hand in homogenates from 4 rats and, on the other hand, in bovine liver (last two values in Table 1).
(§5) The concentration=2760 μmol/liter for all compounds, except the last two compounds for which the concentration was 3.0 mmol/liter.

[2] = system: aldehyde dehydrogenase (low Km); test: In vitro inhibition of aldehyde dehydrogenase, measured on bovine liver; assay type: biochemical; conditions: 3.0 mmol/liter, water ref. = 100, double determinations, 60 min
Procedure: as §1, §2, §3
*Measured on bovine liver
as §4, §5

[3] = system: acetaldehyde dehydrogenase; conditions: cited from earlier work
[4] = cited from earlier work
[5] = cited from earlier work; remark: listed apart in the source
patients = conditions: person takes disulfiram and then drinks alcohol; cited from earlier work
rats = test: "Antabuse-alcohol" reaction on rats by tonometry (diastolic blood pressure after ethanol); assay type: in vivo, rat; conditions: N = 3, salt water 92.5 ± 5.2
Procedure: Method of assessing the "Antabuse®-alcohol" reaction on rats by tonometry
These measurements were performed on a selected compound. The substance employed is diethyl thiocarbamic acid-S-methyl ester (referred to as DTSM hereinafter).
Male rats having a body weight of 300-400 g were anaesthetised with urethane 1.25 g/kg i.p. On a group of 4 rats, a catheter filled with heparin-salt water was inserted by operative surgery in one carotid artery, and the blood pressure was recorded before and after intraperitoneal injection of ethanol (1 g/kg, 10 ml/kg of 10% v/v ethanol in water). Two other groups of 3 rats each were treated intraperitoneally with DTSM for 1 and 2 hours, respectively, whereupon ethanol (1 g/kg, 10 ml/kg of 10% v/v ethanol in water) was injected intraperitoneally. The blood pressure was measured before the injection of ethanol and for 30 min. after injection, after which time the blood pressure has usually stabilized itself (Hellstrom and Tottmar: Pharmacology Biochemistry and Behaviour 1982:17:1103).

Row | SMILES | remaining activity at 2760 µM [1] [%] | also measured
1 | CCSC(=O)N(CC)CC [X = CH2 CH3, R = CH2 CH3, R1 = CH2 CH3, diethyl thiocarbamic acid-S-ethyl ester] | 8 | –
2 | CSC(=O)Nc1ccccc1 | 8 | –
3 | CCN(CC)C(=O)OC [Diethyl carbamic acid-methyl ester] | – | Residual activity of aldehyde dehydrogenase (Low Km in % of ref. value) [2]: 87 % of ref. value
4 | CSC(=O)N1CCCCC1 | 16 | –
5 | CSC(=O)NCCc1ccc(O)cc1 | 10 | –
6 | CSC(=O)N1CCCC1 | 9 | –
7 | COC(=O)N1CCCCC1 [1-piperidine carbamic acid-methyl ester] | – | Residual activity of aldehyde dehydrogenase (Low Km in % of ref. value) [2]: 76 % of ref. value
8 | CCN(CC)C(=S)SSC(=S)N(CC)CC [disulfiram] | – | blocking of liver enzyme acetaldehyde dehydrogenase [3]: irreversible blocking; solubility in water [4]: very sparingly soluble in water; t 1/2 of metabolism in blood [5]: 4 min; disulfiram/alcohol reaction (patients): nausea, a ruddy complexion, palpitation of the heart, low blood pressure, vomiting, and a pulsating headache
9 | CCCN(CCC)C(=O)SC | 11 | –
10 | CCN(CC)C(=O)SC [DTSM, diethyl thiocarbamic acid-S-methyl ester] | 73 | Diastolic blood pressure of rats 30 min. after ethanol injection, % of own ref. value (X ± SD) (rats; DTSM 30 mg/kg i.p. 1 hour before ethanol 1 g/kg i.p., p <0.01): 77.1 ± 3.6 % of own ref. value; Diastolic blood pressure of rats 30 min. after ethanol injection, % of own ref. value (X ± SD) (rats; DTSM 30 mg/kg i.p. 2 hours before ethanol 1 g/kg i.p., p <0.05): 57.6 ± 28 % of own ref. value
11 | CSC(=O)N(C)C [X = CH3, R = CH3, R1 = CH3, dimethyl thiocarbamic acid-S-methyl ester] | 16 | –
12 | CSC(=O)NCCc1ccccc1 | 0 | –
